Reference: ChEMBL document CHEMBL1201862, “PubChem BioAssay data set” (2004)
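All cell lines were grown in 96-well plates and treated with compound for 48 hours. GI50 marks 50% less growth.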 Active and inactive are the calls of the source. Rule as the data show it: active = GI50 up to about 1.1 µM and inactive = higher.

Legend:
Test in all cases: NCI tumour cell line growth inhibition, 48 h
[1] = test system: Hs-578T
[2] = test system: K562
[3] = test system: HOP-92
[4] = test system: OVCAR-3
[5] = test system: NCI-H522
[6] = test system: SF-539
[7] = test system: Malme-3M
[8] = test system: U-251
[9] = test system: SF-295
[10] = test system: ACHN
[11] = test system: SW-620
[12] = test system: RPMI-8226
[13] = test system: HCC 2998
[14] = test system: MOLT-4
[15] = test system: HCT-116
[16] = test system: M14
[17] = test system: TK-10
[18] = test system: OVCAR-5
[19] = test system: 786-0
[20] = test system: EKVX

Measured: GI50

COC(=O)c1cc2c(cc1CC(Cc1ccc3c(c1)CCCC3)C(=O)OC)CCCC2 (stereo not given)
inactive: [1] 93.3 µM | [2] 40.1 µM | [3] 44.9 µM | [4] 44.6 µM | [5] 54.5 µM | [6] 32.7 µM | [7] 33.6 µM | [8] 41.7 µM | [9] 76 µM | [10] 49.9 µM | [11] 80.9 µM | [12] 20 µM | [13] 20.8 µM | [14] 42.1 µM | [15] 36 µM | [16] 88.3 µM | [17] 95.3 µM | [18] 68.4 µM | [19] 45.4 µM

O=C1NCc2ccccc2S(=O)(=O)n2cccc21
inactive: [20] > 100 µM | [1] > 100 µM | [4] > 100 µM | [5] 85.7 µM | [6] > 100 µM | [7] > 100 µM | [8] > 100 µM | [9] > 100 µM | [10] > 100 µM | [11] > 100 µM | [12] > 100 µM | [13] > 100 µM | [14] > 100 µM | [15] 63.1 µM | [16] > 100 µM | [17] > 100 µM | [18] > 100 µM | [19] > 100 µM

O=S(=O)(c1ccc(Br)cc1)n1c2ccc(Br)cc2c2nc3ccccc3nc21
inactive: [20] > 100 µM | [1] 47.6 µM | [2] > 100 µM | [3] 39.7 µM | [4] > 100 µM | [5] > 100 µM | [7] > 100 µM | [8] 23.2 µM | [9] 68.1 µM | [10] 39.6 µM | [11] > 100 µM | [12] > 100 µM | [13] > 100 µM | [14] > 100 µM | [15] > 100 µM | [16] > 100 µM | [17] 82 µM | [18] > 100 µM | [19] 31.6 µM

CN(C)CCNC(=O)Cn1cc([N+](=O)[O-])c(=O)c2ccccc21
inactive: [1] > 100 µM | [2] > 100 µM | [4] > 100 µM | [5] > 100 µM | [6] > 100 µM | [7] > 100 µM | [8] > 100 µM | [9] > 100 µM | [10] > 100 µM | [11] > 100 µM | [13] > 100 µM | [14] > 100 µM | [15] > 100 µM | [16] > 100 µM | [17] > 100 µM | [18] > 100 µM | [19] > 100 µM

O=C1/C(=C\c2ccc(F)cc2)CCOc2c1ccc1ccccc21
inactive: [20] 31.4 µM | [1] 40.3 µM | [2] 6.68 µM | [3] 24.9 µM | [4] 8.15 µM | [5] 34 µM | [6] 21.9 µM | [7] 16.5 µM | [8] 10.6 µM | [9] 22 µM | [11] 14.4 µM | [12] 3.3 µM | [13] 3.48 µM | [14] 7.67 µM | [15] 3.49 µM | [16] 26.2 µM | [17] 24.4 µM | [18] 18.5 µM | [19] 23 µM

CC(=N\N)/C(C)=N/N=C(C)/C(C)=N/N
inactive: [20] > 100 µM | [1] > 100 µM | [2] > 10 µM | [3] > 100 µM | [4] > 100 µM | [5] > 100 µM | [6] > 100 µM | [7] > 100 µM | [8] > 100 µM | [9] > 100 µM | [10] > 100 µM | [11] > 100 µM | [12] > 100 µM | [13] > 100 µM | [15] > 100 µM | [16] > 100 µM | [17] > 100 µM | [18] > 100 µM | [19] > 100 µM

COc1ccc(C2C(C#N)=C(S)N(C3OC(CO)C(O)C(O)C3O)C(C)=C2C(C)=O)cc1 (stereo not given)
inactive: [1] > 100 µM | [2] 59.4 µM | [3] 29 µM | [4] 47.3 µM | [5] 60.4 µM | [6] > 100 µM | [7] > 100 µM | [8] > 100 µM | [9] > 100 µM | [10] > 100 µM | [11] > 100 µM | [12] 62.1 µM | [13] > 100 µM | [14] 40.8 µM | [15] > 100 µM | [16] > 100 µM | [17] > 100 µM | [18] > 100 µM | [19] > 100 µM
